≈ marks a conversion by molar mass, not a printed value. Read-outs that look alike come from different tables or passages of the source.
Experiments:
Type in all cases: cell-based
[1] = system: Streptococcus pneumoniae IMC B-0919 (PRSP); assay: Antimicrobial activity test (MIC), clinical isolate IMC B-0919
Description: (§1) Using Streptococcus pneumoniae that include clinical isolates of PRSP, the antimicrobial activity of each of the prepared anti-PRSP agents was measured in accordance with the “determination method of minimum inhibitory concentration of drug against bacteria” of Japanese Society of Chemotherapy (for re-revised version, see Chemotherapy 29; 76, 1981).
(§2) 11 test strains of Streptococcus pneumoniae including IMC B-0919 are all clinical isolates, of which 2 strains, IMC B-0921 and IMC B-1229, are classified into penicillin susceptible Streptococcus pneumoniae (PSSP) and the remaining 9 strains are classified into penicillin-resistant Streptococcus pneumoniae (PRSP) (according to NCCLS standards).

[2] = system: Streptococcus pneumoniae IMC B-0920 (PRSP); assay: Antimicrobial activity test (MIC), clinical isolate IMC B-0920
Description: as §1, §2

[3] = system: Streptococcus pneumoniae IMC B-0922 (PRSP); assay: Antimicrobial activity test (MIC), clinical isolate IMC B-0922
Description: as §1, §2

[4] = system: Streptococcus pneumoniae IMC B-1231 (PRSP); assay: Antimicrobial activity test (MIC), clinical isolate IMC B-1231
Description: as §1, §2

[5] = system: Streptococcus pneumoniae IMC B-1232 (PRSP); assay: Antimicrobial activity test (MIC), clinical isolate IMC B-1232
Description: as §1, §2

[6] = system: Streptococcus pneumoniae IMC B-1233 (PRSP); assay: Antimicrobial activity test (MIC), clinical isolate IMC B-1233
Description: as §1, §2

[7] = system: Streptococcus pneumoniae IMC B-1234 (PRSP); assay: Antimicrobial activity test (MIC), clinical isolate IMC B-1234
Description: as §1, §2

[8] = system: Streptococcus pneumoniae IMC B-1235 (PRSP); assay: Antimicrobial activity test (MIC), clinical isolate IMC B-1235
Description: as §1, §2

[9] = system: Streptococcus pneumoniae IMC B-1236 (PRSP); assay: Antimicrobial activity test (MIC), clinical isolate IMC B-1236
Description: as §1, §2

[10] = system: Streptococcus pneumoniae IMC B-0921 (PSSP); assay: Antimicrobial activity test (MIC), clinical isolate IMC B-0921
Description: as §1, §2

[11] = system: Streptococcus pneumoniae IMC B-1229 (PSSP); assay: Antimicrobial activity test (MIC), clinical isolate IMC B-1229
Description: as §1, §2

[12] = PRSP clinical isolate IMC B-0919
[13] = PRSP clinical isolate IMC B-0920
[14] = PRSP clinical isolate IMC B-0922
[15] = PRSP clinical isolate IMC B-1231
[16] = PRSP clinical isolate IMC B-1232
[17] = PRSP clinical isolate IMC B-1233
[18] = PRSP clinical isolate IMC B-1234
[19] = PRSP clinical isolate IMC B-1235
[20] = PRSP clinical isolate IMC B-1236
[21] = PSSP clinical isolate IMC B-0921
[22] = PSSP clinical isolate IMC B-1229
[23] = Streptococcus pneumoniae IMC B-0919, PRSP
[24] = Streptococcus pneumoniae IMC B-0920, PRSP
[25] = Streptococcus pneumoniae IMC B-0922, PRSP
[26] = Streptococcus pneumoniae IMC B-1231, PRSP
[27] = Streptococcus pneumoniae IMC B-1232, PRSP
[28] = Streptococcus pneumoniae IMC B-1233, PRSP
[29] = Streptococcus pneumoniae IMC B-1234, PRSP
[30] = Streptococcus pneumoniae IMC B-1235, PRSP
[31] = Streptococcus pneumoniae IMC B-1236, PRSP
[32] = Streptococcus pneumoniae IMC B-0921, PSSP
[33] = Streptococcus pneumoniae IMC B-1229, PSSP

SMILES | MIC [1, 12] [µg/mL] | MIC [2, 13] [µg/mL] | MIC [3, 14] [µg/mL] | MIC [4, 15] [µg/mL] | MIC [5, 16] [µg/mL] | MIC [6, 17] [µg/mL] | MIC [7, 18] [µg/mL] | MIC [8, 19] [µg/mL] | MIC [9, 20] [µg/mL] | MIC [10, 21] [µg/mL] | MIC [11, 22] [µg/mL] | also measured
CCC1OC(=O)CCC(C)C(OC2OC(C)CC(N(C)C)C2O)C(CC=O)CC(C)C(=O)C=CC(C)=CC1COC(=O)Cc1ccccc1 (centres unmarked) [MKT-2005] | 0.2 (≈ 0.292 µM) | 0.2 (≈ 0.292 µM) | 0.1 (≈ 0.146 µM) | 0.78 (≈ 1.14 µM) | 0.05 (≈ 0.0731 µM) | <0.025 | 0.1 (≈ 0.146 µM) | 1.56 (≈ 2.28 µM) | 3.13 (≈ 4.58 µM) | 0.05 (≈ 0.0731 µM) | 0.1 (≈ 0.146 µM) | –
CCC1OC(=O)CCC(C)C(OC2OC(C)CC(N(C)C)C2O)C(CC=O)CC(C)C(=O)C=CC(C)=CC1CI (centres unmarked) [MKT-3001] | 0.39 (≈ 0.577 µM) | 0.2 (≈ 0.296 µM) | 0.2 (≈ 0.296 µM) | >50 | 0.1 (≈ 0.148 µM) | 0.2 (≈ 0.296 µM) | 0.2 (≈ 0.296 µM) | 50 (≈ 74 µM) | 25 (≈ 37 µM) | 0.2 (≈ 0.296 µM) | 0.39 (≈ 0.577 µM) | –
CCC1OC(=O)CCC(C)C(OC2OC(C)CC(N(C)C)C2O)C(CC=O)CC(C)C(=O)C=CC(C)=CC1CN=[N+]=[N-] (centres unmarked) [MKT-3004] | 0.2 (≈ 0.339 µM) | 0.1 (≈ 0.169 µM) | 0.1 (≈ 0.169 µM) | 25 (≈ 42.3 µM) | 0.2 (≈ 0.339 µM) | 0.2 (≈ 0.339 µM) | 0.2 (≈ 0.339 µM) | 50 (≈ 84.6 µM) | 50 (≈ 84.6 µM) | 0.1 (≈ 0.169 µM) | 0.1 (≈ 0.169 µM) | –
CCC1OC(=O)CCC(C)C(OC2OC(C)CC(N(C)C)C2O)C(CC=O)CC(C)C(=O)C=CC(C)=CC1CNC(=O)Cc1cccnc1 (centres unmarked) [MKT-3216] | – | – | – | – | – | – | – | – | – | – | – | MIC [1, 23]: 0.10 µg/mL (≈ 0.146 µM); MIC [2, 24]: 0.10 µg/mL (≈ 0.146 µM); MIC [3, 25]: 0.10 µg/mL (≈ 0.146 µM); MIC [4, 26]: 6.25 µg/mL (≈ 9.14 µM); MIC [5, 27]: 0.05 µg/mL (≈ 0.0731 µM); MIC [6, 28]: 0.05 µg/mL (≈ 0.0731 µM); MIC [7, 29]: 0.05 µg/mL (≈ 0.0731 µM); MIC [8, 30]: 12.5 µg/mL (≈ 18.3 µM); MIC [9, 31]: 12.5 µg/mL (≈ 18.3 µM); MIC [10, 32]: 0.10 µg/mL (≈ 0.146 µM); MIC [11, 33]: 0.10 µg/mL (≈ 0.146 µM)
CC[C@H]1OC(=O)[C@H](C)[C@@H](O[C@H]2C[C@@](C)(OC)[C@@H](O)[C@H](C)O2)[C@H](C)[C@@H](O[C@@H]2O[C@H](C)C[C@H](N(C)C)[C@H]2O)[C@](C)(OC)C[C@@H](C)C(=O)[C@H](C)[C@@H](O)[C@]1(C)O [clarithromycin, reference compound] | – | – | – | – | – | – | – | – | – | – | – | MIC ([1]; Streptococcus pneumoniae IMC B-0919, PRSP, read-out: MIC): 0.2 µg/mL (≈ 0.267 µM); MIC ([2]; Streptococcus pneumoniae IMC B-0920, PRSP, read-out: MIC): 0.2 µg/mL (≈ 0.267 µM); MIC ([3]; Streptococcus pneumoniae IMC B-0922, PRSP, read-out: MIC): 0.2 µg/mL (≈ 0.267 µM); MIC ([4]; Streptococcus pneumoniae IMC B-1231, PRSP, read-out: MIC): 25 µg/mL (≈ 33.4 µM); MIC ([5]; Streptococcus pneumoniae IMC B-1232, PRSP, read-out: MIC): 0.39 µg/mL (≈ 0.521 µM); MIC ([6]; Streptococcus pneumoniae IMC B-1233, PRSP, read-out: MIC): 0.05 µg/mL (≈ 0.0668 µM); MIC ([7]; Streptococcus pneumoniae IMC B-1234, PRSP, read-out: MIC): 0.05 µg/mL (≈ 0.0668 µM); MIC ([8]; Streptococcus pneumoniae IMC B-1235, PRSP, read-out: MIC): > 100 µg/mL; MIC ([9]; Streptococcus pneumoniae IMC B-1236, PRSP, read-out: MIC): > 100 µg/mL; MIC ([10]; Streptococcus pneumoniae IMC B-0921, PSSP, read-out: MIC): 0.1 µg/mL (≈ 0.134 µM); MIC ([11]; Streptococcus pneumoniae IMC B-1229, PSSP, read-out: MIC): 0.1 µg/mL (≈ 0.134 µM)
CCC1OC(=O)CCC(C)C(OC2OC(C)CC(N(C)C)C2O)C(CC=O)CC(C)C(=O)C=CC(C)=CC1CN (centres unmarked) [MKT-3005] | 0.78 (≈ 1.38 µM) | 1.56 (≈ 2.76 µM) | 0.39 (≈ 0.691 µM) | 50 (≈ 88.5 µM) | 0.2 (≈ 0.354 µM) | 0.05 (≈ 0.0885 µM) | 0.2 (≈ 0.354 µM) | 100 (≈ 177 µM) | 100 (≈ 177 µM) | 0.1 (≈ 0.177 µM) | 0.2 (≈ 0.354 µM) | –
CCC1OC(=O)CCC(C)C(OC2OC(C)CC(N(C)C)C2O)C(CC=O)CC(C)C(=O)C=CC(C)=CC1CN1CCC(CCO)CC1 (centres unmarked) [MKT-6113] | – | – | – | – | – | – | – | – | – | – | – | MIC [1, 23]: 0.78 µg/mL (≈ 1.15 µM); MIC [2, 24]: 1.56 µg/mL (≈ 2.3 µM); MIC [3, 25]: 1.56 µg/mL (≈ 2.3 µM); MIC [4, 26]: >50 µg/mL; MIC [5, 27]: 1.56 µg/mL (≈ 2.3 µM); MIC [6, 28]: 0.78 µg/mL (≈ 1.15 µM); MIC [7, 29]: 0.39 µg/mL (≈ 0.576 µM); MIC [8, 30]: >50 µg/mL; MIC [9, 31]: >50 µg/mL; MIC [10, 32]: 0.20 µg/mL (≈ 0.295 µM); MIC [11, 33]: 0.39 µg/mL (≈ 0.576 µM)

Source: US8053418B2, “Anti-penicillin resistant pneumococci agent and novel 16-membered macrolide derivative” (Microbial Chemistry Research Foundation, priority 2005, dated 2011)
